In PubChem BioAssay (NCI):
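Abbreviation: GI50, concentration required for 50% inhibition of growth. TGI: total growth inhibition.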

Legend:
Assay in all cases: NCI-60 cell line screen, 384-well format
SW-620 colon = test system: SW-620 colon
U251 glioblastoma = test system: U251 glioblastoma
UO-31 renal = test system: UO-31 renal
CAKI-1 renal = test system: CAKI-1 renal
786-0 renal = test system: 786-0 renal
SN12C renal = test system: SN12C renal
MDA-MB-468 breast = test system: MDA-MB-468 breast
OVCAR-5 ovarian = test system: OVCAR-5 ovarian
SK-MEL-28 melanoma = test system: SK-MEL-28 melanoma
SK-MEL-2 melanoma = test system: SK-MEL-2 melanoma
HCT-116 colon = test system: HCT-116 colon
MDA-MB-231 breast = test system: MDA-MB-231 breast
HCT-15 colon = test system: HCT-15 colon
SF-268 CNS = test system: SF-268 CNS
K-562 leukemia = test system: K-562 leukemia
TK-10 renal = test system: TK-10 renal
NCI-H460 NSCLC = test system: NCI-H460 NSCLC
NCI-H226 lung = test system: NCI-H226 lung
OVCAR-8 ovarian = test system: OVCAR-8 ovarian
MCF7 breast = test system: MCF7 breast
HT29 colon = test system: HT29 colon
COLO 205 colon = test system: COLO 205 colon
MALME-3M melanoma = test system: MALME-3M melanoma
A549 NSCLC = test system: A549 NSCLC
HL-60(TB) leukemia = test system: HL-60(TB) leukemia
HOP-92 NSCLC = test system: HOP-92 NSCLC
SK-MEL-5 melanoma = test system: SK-MEL-5 melanoma
KM12 colon = test system: KM12 colon
ACHN renal = test system: ACHN renal
T-47D breast = test system: T-47D breast
SF-295 CNS = test system: SF-295 CNS
UACC-62 melanoma = test system: UACC-62 melanoma
SR leukemia = test system: SR leukemia
NCI/ADR-RES ovarian = test system: NCI/ADR-RES ovarian
NCI-H23 lung = test system: NCI-H23 lung
MDA-MB-435 melanoma = test system: MDA-MB-435 melanoma
NCI-H322M lung = test system: NCI-H322M lung
BT-549 breast = test system: BT-549 breast
RPMI-8226 leukemia = test system: RPMI-8226 leukemia
A498 renal = test system: A498 renal
LOX IMVI melanoma = test system: LOX IMVI melanoma
MOLT-4 leukemia = test system: MOLT-4 leukemia
NCI-H522 lung = test system: NCI-H522 lung
RXF 393 renal = test system: RXF 393 renal
SK-OV-3 ovarian = test system: SK-OV-3 ovarian
DU-145 prostate = test system: DU-145 prostate
CCRF-CEM leukemia = test system: CCRF-CEM leukemia
OVCAR-4 ovarian = test system: OVCAR-4 ovarian
HOP-62 NSCLC = test system: HOP-62 NSCLC
IGROV1 ovarian = test system: IGROV1 ovarian
M14 melanoma = test system: M14 melanoma
SNB-19 CNS = test system: SNB-19 CNS
SF-539 CNS = test system: SF-539 CNS
OVCAR-3 ovarian = test system: OVCAR-3 ovarian
PC-3 prostate = test system: PC-3 prostate
HCC-2998 colon = test system: HCC-2998 colon
UACC-257 melanoma = test system: UACC-257 melanoma

In the case of `COc1cc(F)cc([C@@H](CO)NC(=O)[C@@H](C)N2Cc3ccc(-c4nc(NC5CCOCC5)ncc4Cl)cc3C2=O)c1`, the GI50 (SW-620 colon) is reported as 0.0132 µM, the TGI (SW-620 colon) is reported as 19.3 µM and the GI50 (U251 glioblastoma) is reported as 0.46 µM. The TGI (U251 glioblastoma) was 42.7 µM, the GI50 (UO-31 renal) was 0.578 µM and the TGI (UO-31 renal) was 20.1 µM. For the same molecule, the GI50 (CAKI-1 renal) was 0.096 µM, the TGI (CAKI-1 renal) was 33.3 µM and the GI50 ([…]-0 renal) was 11.3 µM. The TGI (786-0 renal) was 34.1 µM, the GI50 (SN12C renal) was 16.6 µM and the TGI (SN12C renal) was 85.4 µM. The GI50 (MDA-MB-468 breast) was 0.325 µM, the TGI (MDA-MB-468 breast) was 10 µM and the GI50 (OVCAR-5 ovarian) was 0.0102 µM. For the same molecule, the TGI (OVCAR-5 ovarian) was greater than 100 µM, the GI50 (SK-MEL-28 melanoma) was less than 0.01 µM and the TGI (SK-MEL-28 melanoma) was less than 0.01 µM. It also gave a GI50 (SK-MEL-2 melanoma) of less than 0.01 µM, a TGI (SK-MEL-2 melanoma) of 0.0312 µM and a GI50 (HCT-116 colon) of 0.0137 µM. It also gave a TGI (HCT-116 colon) of 0.201 µM, a GI50 (MDA-MB-231 breast) of 0.0854 µM and a TGI (MDA-MB-231 breast) of 19.1 µM. The GI50 (HCT-15 colon) was 14.4 µM, the TGI (HCT-15 colon) was 75.6 µM and the GI50 (SF-268 CNS) was 25.5 µM. The TGI (SF-268 CNS) was 79.5 µM, the GI50 (K-562 leukemia) was 0.409 µM and the TGI (K-562 leukemia) was 19 µM. It also gave a GI50 (TK-10 renal) of 0.821 µM, a TGI (TK-10 renal) of 40.3 µM and a GI50 (NCI-H460 NSCLC) of 1.12 µM. The TGI (NCI-H460 NSCLC) was 31.3 µM, the GI50 (NCI-H226 lung) was 0.214 µM and the TGI (NCI-H226 lung) was 16.1 µM. The GI50 (OVCAR-8 ovarian) was 12.4 µM, the TGI (OVCAR-8 ovarian) was 28.2 µM and the GI50 (MCF7 breast) was 16.5 µM. The TGI (MCF7 breast) was 31.9 µM, the GI50 (HT29 colon) was less than 0.01 µM and the TGI (HT29 colon) was 13.4 µM. It also gave a GI50 (COLO 205 colon) of less than 0.01 µM, a TGI (COLO 205 colon) of 0.0246 µM and a GI50 (MALME-3M melanoma) of less than 0.01 µM. The TGI (MALME-3M melanoma) was less than 0.01 µM, the GI50 (A549 NSCLC) was 0.0457 µM and the TGI (A549 NSCLC) was 17.3 µM. The GI50 (HL-60(TB) leukemia) was less than 0.01 µM, the TGI (HL-60(TB) leukemia) was 0.0429 µM and the GI50 (HOP-92 NSCLC) was 0.0249 µM. The TGI (HOP-92 NSCLC) was 0.162 µM, the GI50 (SK-MEL-5 melanoma) was 0.0181 µM and the TGI (SK-MEL-5 melanoma) was 12.1 µM. For the same molecule, the GI50 (KM12 colon) was 0.0465 µM, the TGI (KM12 colon) was 16.4 µM and the GI50 (ACHN renal) was 5.8 µM. For the same molecule, the TGI (ACHN renal) was 60.8 µM, the GI50 (T-47D breast) was 11.7 µM and the TGI (T-47D breast) was 24.1 µM. The GI50 (SF-295 CNS) was 15.2 µM, the TGI (SF-295 CNS) was 43 µM and the GI50 (UACC-62 melanoma) was less than 0.01 µM. It also gave a TGI (UACC-62 melanoma) of 0.0427 µM, a GI50 (SR leukemia) of 0.499 µM and a TGI (SR leukemia) of 14.7 µM. It also gave a GI50 (NCI/ADR-RES ovarian) of 14.7 µM, a TGI (NCI/ADR-RES ovarian) of 31.9 µM and a GI50 (NCI-H23 lung) of less than 0.01 µM. The TGI (NCI-H23 lung) was 0.0221 µM, the GI50 (MDA-MB-435 melanoma) was 0.0103 µM and the TGI (MDA-MB-435 melanoma) was 20.1 µM. For the same molecule, the GI50 (NCI-H322M lung) was 0.0722 µM, the TGI (NCI-H322M lung) was 25.8 µM and the GI50 (BT-549 breast) was 11.4 µM. It also gave a TGI (BT-549 breast) of 23.8 µM, a GI50 (RPMI-8226 leukemia) of 0.224 µM and a TGI (RPMI-8226 leukemia) of 5.09 µM. The GI50 (A498 renal) was 10.4 µM, the TGI (A498 renal) was 36.1 µM and the GI50 (LOX IMVI melanoma) was 0.0134 µM. It also gave a TGI (LOX IMVI melanoma) of 0.0671 µM, a GI50 (MOLT-4 leukemia) of 7.8 µM and a TGI (MOLT-4 leukemia) of 20.2 µM. The GI50 (NCI-H522 lung) was 11.3 µM, the TGI (NCI-H522 lung) was 27.4 µM and the GI50 (RXF 393 renal) was 0.441 µM. The TGI (RXF 393 renal) was 16.9 µM, the GI50 (SK-OV-3 ovarian) was 6.75 µM and the TGI (SK-OV-3 ovarian) was 63.2 µM. For the same molecule, the GI50 (DU-145 prostate) was 11.3 µM, the TGI (DU-145 prostate) was 38.7 µM and the GI50 (CCRF-CEM leukemia) was 11.7 µM. For the same molecule, the TGI (CCRF-CEM leukemia) was 24.7 µM, the GI50 (OVCAR-4 ovarian) was 13.2 µM and the TGI (OVCAR-4 ovarian) was 39.3 µM. It also gave a GI50 (HOP-62 NSCLC) of 0.218 µM, a TGI (HOP-62 NSCLC) of 25.9 µM and a GI50 (IGROV1 ovarian) of 0.145 µM. The TGI (IGROV1 ovarian) was 12.6 µM, the GI50 (M14 melanoma) was less than 0.01 µM and the TGI (M14 melanoma) was 0.0138 µM. For the same molecule, the GI50 (SNB-19 CNS) was 11 µM, the TGI (SNB-19 CNS) was greater than 100 µM and the GI50 (SF-539 CNS) was 0.382 µM. For the same molecule, the TGI (SF-539 CNS) was 15.6 µM, the GI50 (OVCAR-3 ovarian) was 13.9 µM and the TGI (OVCAR-3 ovarian) was 33.3 µM. The GI50 (PC-3 prostate) was 18.3 µM, the TGI (PC-3 prostate) was 36.2 µM and the GI50 (HCC-2998 colon) was less than 0.01 µM. The TGI (HCC-2998 colon) was 0.0408 µM, the GI50 (UACC-257 melanoma) was less than 0.01 µM and the TGI (UACC-257 melanoma) was 0.0209 µM.
